System: Xenopus oocytes
Assay: Osmotic water permeability (swelling) of control- or AQP1 RNA-injected Xenopus oocytes
Format: cell-based, Xenopus laevis
Conditions: control-injected oocytes (RNA None), 22° C.
Experimental: Expression of AOP1 in Xenopus oocytes. Oocytes were removed from female Xenopus laevis frogs and prepared as described by Dascal (CRC Crit. Rev. Biochem., 1987, 22:317-373). Oocytes were injected with 0.05 microliters of water (control) or the same volume of water containing 1-10 nanograms of AQP1 RNA. The oocytes were incubated for up to 96 hours at 18° C. in modified Barth's buffer (88 mM NaCl, 1 mM KCl, 0.8 mM MgSO4, 0.3 mM Ca(NO3) 2, 0.4 mM CaCl2, 2.4 mM NaHCO3, 10 mM HEPES, pH =7.4, total osmolality =200 mOsm/kg) also containing antibiotics. The whole oocytes were then removed and total cellular protein was dissolved in 40 microliters of buffer containing 1% (w/v) SDS and analyzed by immunoblot (Towbin et al., 1979, Proc. Natl. Acad. Sci. USA 76:4350-4354).
A swelling assay was adapted from that of published work (Fischbarg et al., 1990, Proc. Natl. Acad. Sci. USA 87:3244-3247; Zhang et al., 1990, J. Biol. Chem. 265:15375-15378). […] Swelling was monitored with a Nikon phase-contrast microscope equipped for videorecording. The longest (D1) and shortest (D2) diameters of the oocytes were measured at 15- to 30-second intervals. Oocyte volumes (V) at each time point were calculated relative to volume at the initial observation (V0): […]

SMILES | Pf [cm/s x 10^-4] | Pf (HgCl2 0.3 (nM), ME 0) [cm/s x 10^-4]
OCCS [β-mercaptoethanol] | 25.4 | –
[Cl][Hg][Cl] [HgCl2] | – | 20.3

Source: patent publication US5858702A, “Isolation, cloning and expression of transmembrane water channel Aquaporin 5 (AQP5)” (The Johns Hopkins University, priority 1995, dated 1999)
